From patent US7498406B2, “Substantially cell membrane impermeable compound and use thereof” (priority 1999, dated 2009)
“Also recorded” adds a separate entry of the source.

Key:
[1] = Interaction of GSAO with synthetic, peptide and protein dithiols; assay type: binding; conditions: read-out: dissociation constants, range over the dithiols
Experimental: (§1) FIG. 12. Interaction of GSAO with synthetic, peptide and protein dithiols. DMP (A) (15 μM), 6,8-thioctic acid (B) ([…]), dithiothreitol (C) (8.5 μM), TrpCysGlyProCysLys (D) (4.6 μM), TrpCysGlyHisCysLys (E) (5.5 μM) or thioredoxin (F) (4.1 μM corresponding to 20.6 μM thiols) was incubated with GSAO (0-56 μM) for 10 minutes. DTNB (950 μM) was then added and the reactions incubated for a further 10 minutes. The concentration of thiol in the reactions was determined from the absorbance of the TNB dianion at 412 nm. The solid lines represent the best non-linear least squares fit of the data to Equation 1 (A to E) or Equation 2 (F) and have been drawn using the parameter estimates in Table 1. The dotted line in part A represents a simulated titration assuming an infinite affinity of GSAO for the dithiol. GSAO bound to both synthetic, peptide and protein dithiols with dissociation constants in the range 130 nM to 1.4 μM.
Binding of GSAO to dithiols was measured from loss of thiols using the DTNB assay described above. The dissociation constant, Kd, for GSAO binding to dithiols was determined by incubating increasing concentrations of GSAO, I, with a fixed dithiol concentration, [S]T, and measuring the remaining dithiol using DTNB. Note that the concentration of dithiol equals half the TNB concentration. […]

[2] = Binding of GSAO to dithiol, loss of thiols in DTNB assay; conditions: for Kd: errors are 1 SD, read-out: Dissociation Constant
Experimental: as §1
A stock solution of DMP (5 μL, 50 μmol) was dissolved in DMSO (995 μL), giving a concentration of 50 mM DMP, A second dilution of the 50 mM DMP stock solution (10 μL) in pH 7.0 buffer (0.1 M HEPES, 0.3 M NaCl, 1 mM EDTA) (990 μL) gave a working solution of 500 ? M DMP. The activity of the arsenical could then be determined by the titration of varying amounts of arsenical against the DMP working solution (10 μL) in a 96-well microtitre plate, with the total volume made up to 195 μL by addition of buffer. After a 10 minute incubation at room temperature, during which time the solutions were agitated on a plate shaker, 5 μL of a 37.9 mM stock solution of DTNB (15 mg) in DMSO (1 mL) was added, and the plate incubated with shaking for another 10 minutes. The absorbance at 412 nm due to the formation of the TNB dianion was measured using a Molecular Devices Thermomax Plus (Palo Alto, Calif.) microplate reader. The extinction coefficient for the TNB dianion at pH 7.0 is 14, 150 M^−1cm^−1 at 412 nm (Riddles et al., 1983).
Binding of GSAO to dithiols was measured from loss of thiols using the DTNB assay described above. The dissociation constant, Kd, for GSAO binding to dithiols was determined by incubating increasing concentrations of GSAO, I, with a fixed dithiol concentration, [S]T, and measuring the remaining dithiol using DTNB. Note that the concentration of dithiol equals half the TNB concentration. The concentration of dithiol.GSAO complex, SI, as a function of the total GSAO concentration, [I]T, is described by Equation 1 (Hogg and Jackson, 1990), [SI]=0.5.{([S]T+x.[I]T+Kd)−(([S]T+x.[I]T+Kd)^2−4.[S]T.x.[I]T)^0.5} (1)
where x is a factor that, when multiplied together with [I]T, will yield the active concentration of GSAO. […]

[3] = system: chick CAM; test: Chick chorioallantoic membrane (CAM) angiogenesis; assay type: in vivo; conditions: for inhibition of CAM angiogenesis (avascular zones): 5, 10 or 50 μg per pellet, 48 hr; for adverse effect on the wellbeing of the chick embryo: up to 50 μg per pellet
Experimental: FIG. 22. Inhibition of CAM angiogenesis by GSAO. Fertilised 3 day-old white Leghorn eggs were cracked, the embryos placed in petri dishes and incubated for 3 days. Methylcellulose discs containing 5, 10 or 50 μg of either GSAA or GSAO were then applied to the CAM of individual embryos and incubated for 48 hr. The CAMs were scored for no obvious effect or inhibition of angiogenesis as defined by avascular zones. Photographs of CAM's after incubation with discs containing 10 μg of either GSAA (top) or GSAO (bottom) is shown in the left hand panel. The dotted circle indicates the placement of the disc.
The chick CAM assay has been used for the detection and analysis of angiogenesis inhibition (Nguyen et al., 1994). Fertilised 3 day-old white Leghorn eggs (Spafas, Norwich, Conn.) were cracked, the embryos with intact yolks placed in 20×100 mm petri dishes and incubated for 3 days at 37° C. and 3% CO2 (Folkman, 1995). Methylcellulose (Fisher Scientific, Fair Lawn, N.J.) discs containing 5, 10 or 50 μg of either GSAA or GSAO were then applied to the CAM of individual embryos and incubated for 48 hr at 37° C. and 3% CO2. The discs were made by desiccation of GSAA or GSAO in 10 μl of 0.45% methycellulose on teflon rods. The CAMs were observed using a stereomicroscope and scored for no obvious effect or inhibition of CAM angiogenesis as defined by avascular zones. On some occasions CAM blood vessels were injected with India ink and photographed.

[4] = system: HIVIIIB; test: HIVIIIB entry into / infection of A3.01 cells, p24 antigen; assay type: cell-based, HIV
Experimental: FIG. 33. […] Cells were washed and incubated in complete medium at 5% CO2 and 37° C. for up to 10 days. […] B Concentration dependence of GSAO. […] Cells were washed, incubated in complete medium at 5% CO2 and 37° C. for 3 days and the conditioned medium collected and assayed for p24 antigen.
FIG. 34. Inhibition of HIVIIIB infection of A3.01 cells by GSAO.
A3.01 human T cells were exposed to GSAO for 30 minutes and then to HTLVIIIB virus for 2 hours after which the cells were washed and then cultured for up to 10 days. HTLVIIIB and A3.01 cells were obtained from the NIH AIDS Research and Reference Reagent Program, Rockville, Mass. Virus stocks were made and infectivity titer determined using A3.01 cells and the p24 antigen assay (Coulter, Miami, Fla.). A3.01 cells were cultured in RPMI medium containing 10% fetal calf serum. […] Cell numbers and cell viability were determined at the times specified by staining cells with trypan blue and counting using a Neubauer haemacytometer. Cell viability was measured as a percentage of live cells to total cells.

| Structure (SMILES) | Kd [1] [nM] | interaction with DMP in DTNB titration ([2]; DMP 15 μM, GSAO 0-50 μM, 10 minutes) | Kd ([2]; ring size 5) [nM] | Kd ([2]; ring size 6) [nM] | Kd ([2]; ring size 7) [nM] | inhibition of CAM angiogenesis (avascular zones) [3] | adverse effect on the wellbeing of the chick embryo [3] | HIVIIIB infection of A3.01 cells ([4]; 10 μM, also in the culture medium) | inhibition of HIVIIIB entry ([4]; 100 μM, 30 minutes before virus) | IC50 ([4]; Human immunodeficiency virus 1, read-out: half-maximal effect on HIVIIIB entry) [nM] |
| --- | --- | --- | --- | --- | --- | --- | --- | --- | --- | --- |
| NC(CCC(=O)NC(CSCC(=O)Nc1ccc([As]=O)cc1)C(=O)NCC(=O)O)C(=O)O (stereo not drawn) [GSAO, 4-(N-(S-glutathionylacetyl)amino)-phenylarsenoxide] | 130 to 1400 | bound to DMP and prevented interaction of the dithiol with DTNB | 130 | 200 ± 50 | 420 | inhibited angiogenesis in the CAM in a concentration-dependent manner | Neither GSAA nor GSAO had any apparent adverse effect | effectively blocked | Inhibition of HIVIIIB entry; also recorded: inhibited entry | ~1000 |
| N[C@@H](CCC(=O)N[C@@H](CSCC(=O)Nc1ccc([As](=O)(O)O)cc1)C(=O)NCC(=O)O)C(=O)O [GSAA, 4-(N-(S-glutathionylacetyl)amino)phenylarsonic acid, reference compound] | – | – | – | – | – | did not inhibit CAM angiogenesis; also recorded: no effects on CAM angiogenesis | Neither GSAA nor GSAO had any apparent adverse effect | – | – | – |
